Assay results: PMC11279465, “Dual Inhibitors of P-gp and Carbonic Anhydrase XII (hCA XII) against Tumor Multidrug Resistance with Piperazine Scaffold” (Molecules, 2024)

Legend:
[1] = biological target: T1, hCA IX (Homo sapiens, UniProt Q16790); assay: CA inhibition, stopped-flow CO2 hydrase assay; assay type: biochemical; settings: stopped-flow technique; incubation time 6 h; mean of 3 assays
T1 construct: made in house
Description: (§1) Four hCA isoforms were used in this assay: the cytosolic hCA I and II and the tumor-associated transmembrane hCA IX and XII isoforms. Acetazolamide (AAZ) was used as a standard inhibitor.
(§2) An SX.18MV-R Applied Photophysics (Oxford, UK) stopped-flow instrument has been used to assay the catalytic/inhibition of various CA isozymes. […] Saturated CO2 solutions in water at 25 °C were used as substrate. Stock solutions of inhibitors were prepared at a concentration of 10 μM (in DMSO-water 1:1, v/v) and dilutions up to 0.01 nM were carried out with the assay buffer mentioned above. […] Inhibitor and enzyme solutions were preincubated together for 6 h at room temperature prior to assay in order to allow for the formation of the E-I complex. […] The inhibition constants were obtained by non-linear least-squares methods using the Cheng–Prusoff equation, as reported earlier, and represent the mean from at least three different determinations.

[2] = biological target: T2, hCA XII (Homo sapiens, UniProt O43570); assay: CA inhibition, stopped-flow CO2 hydrase assay; assay type: biochemical; settings: stopped-flow technique; incubation time 6 h; mean of 3 assays
T2 construct: made in house
T2 sequence (O43570 25-354): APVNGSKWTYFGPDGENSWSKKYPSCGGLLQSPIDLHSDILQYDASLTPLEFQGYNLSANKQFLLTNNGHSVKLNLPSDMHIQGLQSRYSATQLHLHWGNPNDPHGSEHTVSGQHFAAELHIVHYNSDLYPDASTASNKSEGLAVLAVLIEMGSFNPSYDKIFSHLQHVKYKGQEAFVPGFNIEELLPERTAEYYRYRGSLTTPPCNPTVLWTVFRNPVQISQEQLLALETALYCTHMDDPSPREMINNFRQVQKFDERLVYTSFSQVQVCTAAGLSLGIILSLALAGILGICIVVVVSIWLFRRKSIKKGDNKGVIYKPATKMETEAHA
Description: as §1, §2

[3] = biological target: T3, hCA II (Homo sapiens, UniProt P00918); assay: CA inhibition, stopped-flow CO2 hydrase assay; assay type: biochemical; settings: stopped-flow technique; incubation time 6 h; mean of 3 assays
T3 construct: made in house
Description: as §1, §2

[4] = biological target: T4, hCA I (Homo sapiens, UniProt P00915); assay: CA inhibition, stopped-flow CO2 hydrase assay; assay type: biochemical; settings: stopped-flow technique; incubation time 6 h; mean of 3 assays
T4 construct: made in house
T4 sequence (P00915 whole entry): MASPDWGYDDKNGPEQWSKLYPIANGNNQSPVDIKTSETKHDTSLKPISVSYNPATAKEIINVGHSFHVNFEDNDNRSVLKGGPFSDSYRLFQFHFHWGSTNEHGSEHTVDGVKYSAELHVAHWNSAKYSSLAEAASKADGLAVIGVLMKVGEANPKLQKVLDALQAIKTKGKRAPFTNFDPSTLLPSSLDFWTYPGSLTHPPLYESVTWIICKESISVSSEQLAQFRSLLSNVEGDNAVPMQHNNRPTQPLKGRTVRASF
Description: as §1, §2

[5] = test system: K562/DOX cells; assay: Doxorubicin cytotoxicity enhancement assay (MTT); assay type: cell-based, human; settings: 72 h
Description: K562 is a highly undifferentiated erythroleukemia cell line. The doxorubicin-resistant K562/DOX cells overexpress almost exclusively the transporter membrane protein P-gp.
K562/DOX cells were incubated for 72 h with different concentrations of doxorubicin in combination with 1 or 3 µM of all compounds. […] HT29, A549, HT29/DOX and A549/DOX cells were incubated for 48 h with 5 µM doxorubicin, alone or in combination with 1 or 3 µM of selected compounds. Cell viability of the cell lines was measured by the MTT assay, using a Synergy HT microplate spectrofluorometer (Bio-Tek Instruments, Winooski, VT, USA). The absorbance of untreated cells was considered 100%; results were expressed as a percentage of viable treated cells versus the control untreated cells.

| SMILES | Ki [1] | Ki [2] | Ki [3] | Ki [4] | RF (Reversal Fold: IC50 of doxorubicin alone / in presence of modulator) ([5]; compound at 1 µM) | RF (Reversal Fold: IC50 of doxorubicin alone / in presence of modulator) ([5]; compound at 3 µM) |
| --- | --- | --- | --- | --- | --- | --- |
| COc1cc(/C=C/CN2CCN(CCCCOc3ccc4ccc(=O)oc4c3)CC2)cc(OC)c1OC [Compound 3, (E)-7-(4-(4-(3-(3,4,5-Trimethoxyphenyl)allyl)piperazin-1-yl)butoxy)-2H-chromen-2-one] | 82 nM | 34.6 nM | > 10000 nM | > 10000 nM | 3.1 | 3.7 |
| COc1cc(/C=C/CN2CCN(CCCCOc3ccc4c(C)cc(=O)oc4c3)CC2)cc(OC)c1OC [Compound 6, (E)-4-Methyl-7-(4-(4-(3-(3,4,5-trimethoxyphenyl)allyl)piperazin-1-yl)butoxy)-2H-chromen-2-one] | 58.9 nM | 44.8 nM | > 10000 nM | > 10000 nM | 6.3 | 6.7 |
| COc1cc(/C=C/CN2CCN(CCOc3ccc4oc(=O)cc(C)c4c3)CC2)cc(OC)c1OC [Compound 10, (E)-4-Methyl-6-(2-(4-(3-(3,4,5-trimethoxyphenyl)allyl)piperazin-1-yl)ethoxy)-2H-chromen-2-one] | 360 nM | 422 nM | > 10000 nM | > 10000 nM | 1.0 | 1.4 |
| COc1cc(/C=C/CN2CCN(CCCOc3ccc4oc(=O)cc(C)c4c3)CC2)cc(OC)c1OC [Compound 11, (E)-4-Methyl-6-(3-(4-(3-(3,4,5-trimethoxyphenyl)allyl)piperazin-1-yl)propoxy)-2H-chromen-2-one] | 302 nM | 441 nM | > 10000 nM | > 10000 nM | 2.4 | 4.1 |
| COc1cc(CN2CCN(CCOc3ccc4c(C)cc(=O)oc4c3)CC2)cc(OC)c1OC [Compound 16, 4-Methyl-7-(2-(4-(3,4,5-trimethoxybenzyl)piperazin-1-yl)ethoxy)-2H-chromen-2-one] | 8.2 nM | 51.9 nM | > 10000 nM | > 10000 nM | 1.0 | 1.4 |
| COc1cc(CN2CCN(CCCOc3ccc4c(C)cc(=O)oc4c3)CC2)cc(OC)c1OC [Compound 17, 4-Methyl-7-(3-(4-(3,4,5-trimethoxybenzyl)piperazin-1-yl)propoxy)-2H-chromen-2-one] | 16.1 nM | 60.8 nM | > 10000 nM | > 10000 nM | 2.6 | 2.1 |
| COc1cc(CN2CCN(CCCCOc3ccc4c(C)cc(=O)oc4c3)CC2)cc(OC)c1OC [Compound 18, 4-Methyl-7-(4-(4-(3,4,5-trimethoxybenzyl)piperazin-1-yl)butoxy)-2H-chromen-2-one] | 28.5 nM | 72.1 nM | > 10000 nM | > 10000 nM | 1.9 | 3.2 |
| COc1cc(CN2CCN(CCCOc3ccc4oc(=O)ccc4c3)CC2)cc(OC)c1OC [Compound 20, 6-(3-(4-(3,4,5-Trimethoxybenzyl)piperazin-1-yl)propoxy)-2H-chromen-2-one] | 72 nM | 22.4 nM | > 10000 nM | > 10000 nM | 2.3 | 2.4 |
| COc1ccc(C(CCCN2CCN(CCOc3ccc4c(C)cc(=O)oc4c3)CC2)c2ccc(OC)cc2)cc1 [Compound 28, 7-(2-(4-(4,4-Bis(4-methoxyphenyl)butyl)piperazin-1-yl)ethoxy)-4-methyl-2H-chromen-2-one] | 135 nM | 103 nM | > 10000 nM | > 10000 nM |  |  |
